Data on 1 compound can be found in patent publication US10874598B2, “Compositions and methods for treating damaged hair” (AVON PRODUCTS, INC., priority 2013, dated 2020).

A short description of the experiment: Tensile load required to break hair fibers (break load). As for the experimental part:
A commercial rinse-off conditioner formulation was used as a control vehicle for the study. An active formulation was prepared by adding 1% (w/w) of TDPA to the control vehicle. Three samples of treated hair were prepared: untreated, treatment with the control vehicle, and treatment with the control vehicle plus 1% TDPA. The treatments were applied to hair tresses that had been previously damaged by artificially color with an oxidative dye. The treatments were repeated five times. The overall condition of the hair fibers was determined by measuring the tensile load required to break the fibers and the results of 30 fibers were averaged. […] In stark contrast, the active formula, having 1% TDPA, gave a break load of about 82 gm. This correlates to an improvement in the tensile strength of about 20%. The formulas used in the testing protocol were as follows: […]

Consider `O=C(O)CCSCCC(=O)O` [TDPA, 3,3′-thiodipropionic acid], for which, where the note is “active formula with 1% TDPA (about 82 gm), untreated hair about 68 gm, control vehicle about 73 gm”, the “improvement in the tensile strength” value was “about 20%”. For the same compound, under “active formula: commercial rinse-off conditioner control vehicle plus 1% (w/w) TDPA, treatments repeated five times, results of 30 fibers averaged, FIG. 1”, the “break load (tensile load required to break the fibers)” value is “about 82 gm”.
